According to the NIST ThermoML archive (doi:10.1016/j.tca.2004.11.022):
Numbers after ± are expanded uncertainties.

Tests used:
[1] = xn = mol fraction of the nth substance listed; settings: 101 kPa, Liquid; for mass density: Vibrating tube method; for speed of sound: Pulse-echo method
[2] = molar heat capacity at constant pressure; xn = mol fraction of the nth substance listed; settings: 101 kPa, Liquid, Small sample (50 mg) DSC

COC(=O)OC [dimethyl carbonate] + CCCCCCCC
Settings	mass density [kg/m3]	molar heat capacity at constant pressure [J/K/mol]	speed of sound [m/s]
[1], 288.15 K, x1 = 0.05047	715.14 ± 0.27	–	–
[1], 288.15 K, x1 = 0.1072	725.36 ± 0.27	–	–
[1], 288.15 K, x1 = 0.1969	743.56 ± 0.29	–	–
[1], 288.15 K, x1 = 0.2958	766.42 ± 0.31	–	–
[1], 288.15 K, x1 = 0.4018	794.6 ± 0.34	–	–
[1], 288.15 K, x1 = 0.5011	825 ± 0.38	–	–
[1], 288.15 K, x1 = 0.5974	858.8 ± 0.4	–	–
[1], 288.15 K, x1 = 0.699	900.18 ± 0.42	–	–
[1], 288.15 K, x1 = 0.7982	947.83 ± 0.45	–	–
[1], 288.15 K, x1 = 0.8992	1005.83 ± 0.49	–	–
[1], 288.15 K, x1 = 0.949	1038.95 ± 0.52	–	–
[1], 293.15 K, x1 = 0.05047	710.88 ± 0.27	–	–
[1], 293.15 K, x1 = 0.1072	721.13 ± 0.27	–	–
[1], 293.15 K, x1 = 0.1969	739.1 ± 0.29	–	–
[1], 293.15 K, x1 = 0.2958	761.79 ± 0.31	–	–
[1], 293.15 K, x1 = 0.4018	789.7 ± 0.34	–	–
[1], 293.15 K, x1 = 0.5011	819.9 ± 0.38	–	–
[1], 293.15 K, x1 = 0.5974	853.5 ± 0.4	–	–
[1], 293.15 K, x1 = 0.699	894.47 ± 0.42	–	–
[1], 293.15 K, x1 = 0.7982	941.92 ± 0.45	–	–
[1], 293.15 K, x1 = 0.8992	999.55 ± 0.49	–	–
[1], 293.15 K, x1 = 0.949	1032.56 ± 0.52	–	–
[1], 298.15 K, x1 = 0.05047	706.69 ± 0.27	–	1165 ± 1.4
[1], 298.15 K, x1 = 0.1072	716.89 ± 0.27	–	1158.1 ± 1.4
[1], 298.15 K, x1 = 0.1969	734.68 ± 0.29	–	1148.9 ± 1.4
[1], 298.15 K, x1 = 0.2958	757.15 ± 0.31	–	1141.5 ± 1.4
[1], 298.15 K, x1 = 0.4018	784.9 ± 0.34	–	1136.1 ± 1.4
[1], 298.15 K, x1 = 0.5011	814.8 ± 0.38	–	1133.7 ± 1.4
[1], 298.15 K, x1 = 0.5974	848.1 ± 0.39	–	1134.2 ± 1.5
[1], 298.15 K, x1 = 0.699	888.77 ± 0.42	–	1138.7 ± 1.5
[1], 298.15 K, x1 = 0.7982	935.98 ± 0.45	–	1149.1 ± 1.5
[1], 298.15 K, x1 = 0.8992	993.3 ± 0.49	–	1167.7 ± 1.6
[1], 298.15 K, x1 = 0.949	1026.12 ± 0.51	–	1180.9 ± 1.6
[1], 308.15 K, x1 = 0.05047	698.46 ± 0.27	–	–
[1], 308.15 K, x1 = 0.1072	708.37 ± 0.28	–	–
[1], 308.15 K, x1 = 0.1969	725.85 ± 0.29	–	–
[1], 308.15 K, x1 = 0.2958	747.86 ± 0.31	–	–
[1], 308.15 K, x1 = 0.4018	775.1 ± 0.33	–	–
[1], 308.15 K, x1 = 0.5011	804.5 ± 0.37	–	–
[1], 308.15 K, x1 = 0.5974	837.3 ± 0.39	–	–
[1], 308.15 K, x1 = 0.699	877.52 ± 0.41	–	–
[1], 308.15 K, x1 = 0.7982	924.07 ± 0.44	–	–
[1], 308.15 K, x1 = 0.8992	980.86 ± 0.48	–	–
[1], 308.15 K, x1 = 0.949	1013.24 ± 0.51	–	–
[2], 288.15 K, x1 = 0.05306	–	245.12 ± 4.9	–
[2], 288.15 K, x1 = 0.1016	–	240.86 ± 4.8	–
[2], 288.15 K, x1 = 0.2012	–	232.99 ± 4.7	–
[2], 288.15 K, x1 = 0.2999	–	225.81 ± 4.5	–
[2], 288.15 K, x1 = 0.4012	–	219.02 ± 4.4	–
[2], 288.15 K, x1 = 0.4549	–	215.27 ± 4.3	–
[2], 288.15 K, x1 = 0.5037	–	211.61 ± 4.2	–
[2], 288.15 K, x1 = 0.5561	–	207.58 ± 4.2	–
[2], 288.15 K, x1 = 0.6482	–	199.24 ± 4	–
[2], 288.15 K, x1 = 0.7075	–	192.93 ± 3.9	–
[2], 288.15 K, x1 = 0.7982	–	182.94 ± 3.7	–
[2], 288.15 K, x1 = 0.8484	–	177.49 ± 3.5	–
[2], 288.15 K, x1 = 0.9493	–	167.98 ± 3.4	–
[2], 298.15 K, x1 = 0.05306	–	248.71 ± 5	–
[2], 298.15 K, x1 = 0.1016	–	244.21 ± 4.9	–
[2], 298.15 K, x1 = 0.1496	–	240.18 ± 4.8	–
[2], 298.15 K, x1 = 0.2012	–	235.89 ± 4.7	–
[2], 298.15 K, x1 = 0.2999	–	228.26 ± 4.6	–
[2], 298.15 K, x1 = 0.4012	–	220.47 ± 4.4	–
[2], 298.15 K, x1 = 0.4549	–	216.32 ± 4.3	–
[2], 298.15 K, x1 = 0.5037	–	212.23 ± 4.2	–
[2], 298.15 K, x1 = 0.5561	–	207.88 ± 4.2	–
[2], 298.15 K, x1 = 0.6482	–	199.37 ± 4	–
[2], 298.15 K, x1 = 0.7982	–	183.94 ± 3.7	–
[2], 298.15 K, x1 = 0.8484	–	178.74 ± 3.6	–
[2], 298.15 K, x1 = 0.9493	–	169.06 ± 3.4	–
[2], 308.15 K, x1 = 0.05306	–	252.62 ± 5	–
[2], 308.15 K, x1 = 0.1016	–	248.11 ± 5	–
[2], 308.15 K, x1 = 0.1496	–	243.91 ± 4.9	–
[2], 308.15 K, x1 = 0.2012	–	239.35 ± 4.8	–
[2], 308.15 K, x1 = 0.2999	–	231.22 ± 4.6	–
[2], 308.15 K, x1 = 0.4012	–	222.77 ± 4.5	–
[2], 308.15 K, x1 = 0.4549	–	218.33 ± 4.4	–
[2], 308.15 K, x1 = 0.5037	–	213.92 ± 4.3	–
[2], 308.15 K, x1 = 0.5561	–	209.21 ± 4.2	–
[2], 308.15 K, x1 = 0.5998	–	205.31 ± 4.1	–
[2], 308.15 K, x1 = 0.6482	–	200.7 ± 4	–
[2], 308.15 K, x1 = 0.7982	–	185.39 ± 3.7	–
[2], 308.15 K, x1 = 0.8484	–	180.34 ± 3.6	–
[2], 308.15 K, x1 = 0.8969	–	175.52 ± 3.5	–
[2], 308.15 K, x1 = 0.9493	–	170.5 ± 3.4	–
